We go through one compound from patent US20260125654A1, “Method for Producing a Three-Dimensional Human Multiple-Myeloma Model” (Etablissement Français du Sang, priority 2022, published 2026).

Each structure is given as a SMILES string.

In general, viability refers to a per cent measure of how many cells are alive, often set against a control.

The assay has as its system plasma cells in MM spheroids. Briefly: Viability of plasma cells in 3D MM spheroids treated with melphalan, flow cytometry (CD38/CD138/DAPI). In kind it is cell-based, human. The note with it: for viability at 10 µM: Homo sapiens, 10 μM melphalan. The method, then: Following a total bone marrow sample at diagnosis in patients with multiple myeloma (MM), MM plasma cells are separated and then counted in a Malassez cell. The cells were then used freshly for cocultures or were frozen in CRYOSTOR. The MM total marrow cells coming from another patient were seeded according to the initial number thereof and the cells were incubated at a temperature of 37° C. and under an atmosphere with 5% carbon dioxide for about 2 weeks. Once confluence was reached, mesenchymal stem/stromal cells (MSCs), endothelial cells and endothelial progenitors were treated with trypsin and counted.
The MSC cells, the endothelial cells and the endothelial progenitors treated with trypsin and the fresh or thawed plasmocytes in a ratio of 1 MSC per 2 plasmocytes were suspended on ULA (Ultra-Low adherence) plates in 50 μL of RPMI medium (10% FCS, 1% PS). The cells were then incubated at a temperature of 37° C. and an atmosphere with 5% carbon dioxide with stirring. 150 μL of RPMI medium were added after incubation for 24 h and the medium was renewed 2 times per week, removing 100 μL of supernatant.
A treatment with […] melphalan was added to the spheroid culture medium 48 h after the formation thereof and the culture was continued for 14 days. The selection method was supplemented by a control situation, without the presence of a drug candidate. Part of the cultures was stopped after 7 (D+7) and 11 (D+11) days to analyze the viability of the plasma cells, whereas the rest of the cultures was stopped after 14 days of culture (D+14). Spheroid cells were mechanically dissociated at 1400 rpm with AccuMax® and then transferred into a tube suitable for flow cytometry and washed with PBS and labeled with the CD38 FITC and CD138 AF700 specific antibodies in MACS buffer. The cells were then incubated at 4° C. for 30 minutes, washed and resuspended in a MACS buffer medium and filtered at 70 μm, and finally labeled with the viability marker DAPI before passing through flow cytometry.
On the technique in general: Flow cytometry measures light scatter and fluorescence of single cells or particles in a stream.

With `N[C@@H](Cc1ccc(N(CCCl)CCCl)cc1)C(=O)O` [melphalan], the viability at 10 µM runs as follows: (D+7) 5%; (D+11) under 5%; (D+14) under 10%. Further, for the setting “melphalan 10 μM”, the “response to treatment of plasma cells within spheroids” value was “strong response”.
